Assay results reported in paper PMC10648349, “Aromatic Diboronic Acids as Effective KPC/AmpC Inhibitors” (Molecules, 2023).
≈ marks a conversion by molar mass, not a printed value.

How the values were obtained:
Gram-positive strains = assay: direct antimicrobial activity, MIC; type: cell-based
Procedure: (§1) Direct antimicrobial activity against Gram-negative and Gram-positive bacterial strains, as well as against yeast, was examined as previously described by the disc-diffusion test, the MIC determination assay, the MBC (for bacteria), and the MFC (for yeasts) determination tests. All the above-mentioned tests were performed according to EUCAST [71, 72] and CLSI [73, 74, 75, 76, 77] recommendations. The following reference agents were used: nitrofurantoin (for Gram-negative rods), linezolid (for Gram-positive bacteria), and fluconazole (in the case of fungi). The new aromatic diboronic acids were dissolved in DMSO (Sigma, St. Louis, MO, USA). In the disc-diffusion test, the concentration of new agents was 0.4 mg per disc. Depending on the solubility, the MIC and MBC/MFC values were determined up to 100 mg/L for 1k, up to 200 mg/L for 7c, and up to 400 mg/L for the remaining compounds: 1a–1j, 2a–2g, 3a–3f, 4a–4b, 5a–5c, 6a and 7a–7b.

[1] = tested on: Gram-negative rods (except P. aeruginosa); assay: direct antimicrobial activity, MIC; type: cell-based
Procedure: as §1, with “disc.” for “disc. Depending on the solubility, the MIC and MBC/MFC values were determined up to 100 mg/L for 1k, up to 200 mg/L for 7c, and up to 400 mg/L for the remaining compounds: 1a–1j, 2a–2g, 3a–3f, 4a–4b, 5a–5c, 6a and 7a–7b.”

[2] = MTT-based viability assay; type: cell-based; conditions: human, MRC-5 human fibroblasts, 72 h, read-out: Viability of MRC-5 cells (% of viable cells ± SD)
How it was run: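 Percent viable cells relative to control, measured in triplicate by MTT read-out at 570 nm. Cells: MRC-5 human fibroblasts cultured at 37 °C, 5% CO2 in MEME plus 10% FBS.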

[3] = tested on: P. aeruginosa MUW 700 AmpC(+); assay: screening test of direct antimicrobial activity (STDA), disc-diffusion; type: cell-based; conditions: Pseudomonas aeruginosa; 0.3 mg per disc; - no zone; read-out: Diameter of inhibition zone around disc with tested agent
Procedure: (§2) Prior to combination disc tests, screening tests of direct antimicrobial activity (STDA) of the tested agent against β-lactamase-producing strains were performed by the disc-diffusion method. Discs with 0.3 mg, 0.1 mg, and 0.03 mg of each agent were examined. The highest amount of an agent that caused no effect on bacterial growth was used in further experiments.

[4] = tested on: K. pneumoniae ATCC 700603 ESBL(+); assay: as above; type: cell-based; conditions: Klebsiella pneumoniae, ATCC700603; 0.3 mg per disc; - no zone; read-out: Diameter of inhibition zone around disc with tested agent
Procedure: as §2

[5] = tested on: C. parapsilosis ATCC 22019; assay: antifungal activity (disc-diffusion, MIC, MFC); type: cell-based, Candida parapsilosis; conditions: Lodderomyces parapsilosis, ATCC22019
How it was run: (§3)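 Diboronic acids (DMSO solutions) at 0.4 mg per disc were used for diffusion testing. Dilution endpoints were MIC, MBC and MFC, per CLSI and EUCAST recommendations.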

B. subtilis ATCC 6633 = assay: direct antimicrobial activity (disc-diffusion); type: cell-based; conditions: Bacillus subtilis, ATCC6633; 0.4 mg per disc, 9 mm disc (linezolid 0.03 mg, 6 mm disc); - no zone; read-out: Diameter of inhibition zone
Procedure: as §1, with “disc.” for “disc. Depending on the solubility, the MIC and MBC/MFC values were determined up to 100 mg/L for 1k, up to 200 mg/L for 7c, and up to 400 mg/L for the remaining compounds: 1a–1j, 2a–2g, 3a–3f, 4a–4b, 5a–5c, 6a and 7a–7b.”

C. tropicalis ATCC 750 = assay: antifungal activity (disc-diffusion, MIC, MFC); type: cell-based; conditions: Candida tropicalis, ATCC750
How it was run: as §3

S. cerevisiae ATCC 9763 = assay: antifungal activity (disc-diffusion, MIC, MFC); type: cell-based; conditions: Saccharomyces cerevisiae, ATCC9763
How it was run: as §3

C. albicans ATCC 90028 = assay: antifungal activity (disc-diffusion, MIC, MFC); type: cell-based; conditions: Candida albicans, ATCC90028
How it was run: as §3

C. tropicalis IBA 171 = assay: antifungal activity (disc-diffusion, MIC, MFC); type: cell-based; conditions: Candida tropicalis, IBA171
How it was run: as §3

[6] = tested on: C. guilliermondii IBA 155; assay: antifungal activity (disc-diffusion, MIC, MFC); type: cell-based, Candida guilliermondii; conditions: Meyerozyma guilliermondii, IBA155
How it was run: as §3

C. krusei ATCC 6258 = assay: antifungal activity (disc-diffusion, MIC, MFC); type: cell-based, Candida krusei; conditions: Pichia kudriavzevii, ATCC6258
How it was run: as §3

S. aureus ATCC 6538P = assay: direct antimicrobial activity (disc-diffusion, MIC, MBC); type: cell-based; conditions: Staphylococcus aureus, ATCC6538P
How it was run: as §3

[7] = tested on: S. epidermidis ATCC 12228; assay: as above; type: cell-based; conditions: Staphylococcus epidermidis, ATCC12228
How it was run: as §3

[8] = tested on: S. aureus ATCC 43300 MRSA; assay: as above; type: cell-based; conditions: Staphylococcus aureus
How it was run: as §3

E. faecalis ATCC 29212 = assay: as above; type: cell-based; conditions: Enterococcus faecalis, ATCC29212
How it was run: as §3

E. faecium ATCC 6057 = assay: as above; type: cell-based; conditions: Enterococcus faecium, ATCC6057
How it was run: as §3

[9] = tested on: P. aeruginosa 1204 VIM(+); assay: checkerboard microdilution, antibiotic plus tested agent; type: cell-based; conditions: Pseudomonas aeruginosa; read-out: MIC of meropenem alone
Procedure: (§4) To examine the ability of tested agents to inhibit various carbapenemases and AmpC-enzymes, their synergy with antibiotics against β-lactamase-producing strains was assessed by checkerboard microdilution assay, with slight modification. Checkerboards were prepared in microtiter plates, with seven two-fold dilutions of β-lactams (1–64 mg/L) in the rows and three two-fold dilutions of tested agents and PBA (4–16 mg/L) in the columns. Tested agents’ concentrations were limited to the concentrations at which the newest commercially available BLIs (vaborbactam, relebactam, and avibactam) are used in susceptibility testing. Plates were inoculated and incubated as in the MIC microdilution assay. Parallel, MICs of tested agents and PBA alone were determined by the microdilution assay. Following the incubation, antibiotic MICs in the presence of each agent’s concentration were determined. Moreover, for the first well without growth found in each checkerboard row and column along the growth/non-growth interface, the fractional inhibitory concentration index (FICI) was calculated using the formula below:FICI = [(MIC of antibiotic in combination)/(MIC of antibiotic alone)] + [(MIC of the tested agent in combination)/(MIC of tested agent alone)].
For calculations, all off-scale MICs were converted to the next-highest doubling concentration. […]

[10] = tested on: K. pneumoniae ATCC BAA 1705 KPC-2-positive; assay: combination disc test CDT-KPC; type: cell-based; conditions: Klebsiella pneumoniae, BAA1705; meropenem 10 µg per disc, 6 mm disc; read-out: Diameter of inhibition zone, MEM-10 disc without agent
[11] = tested on: E. coli 76 KPC-2-positive; assay: checkerboard microdilution, antibiotic plus tested agent; type: cell-based, Escherichia coli; conditions: Escherichia coli; read-out: MIC of meropenem alone
Procedure: as §4
(§5) For calculations, all off-scale MICs were converted to the next-highest doubling concentration. Subsequently, both the average and the lowest FICI were interpreted. The interpretation was as follows: FICI ≤ 0.5, synergy; 0.5 < FICI ≤ 4, indifference and FICI > 4, antagonism. Primarily, examined combinations consisted of meropenem (Pol-Aura, Morag, Poland) plus tested agents against carbapenemases-producing strains and ceftazidime (Pol-Aura, Morag, Poland) plus tested agents against AmpC-producing strains. For agents that reduced meropenem MIC at least 4-fold for at least two tested strains, similar assays were performed with imipenem (Pol-Aura, Morag, Poland) and ertapenem (Pol-Aura, Morag, Poland).

E. coli DH5α = assay: whole cell assay, meropenem MIC with tested agent; type: cell-based, Escherichia coli; conditions: Escherichia coli; read-out: MIC of meropenem alone
Procedure: as §4

[12] = tested on: E. coli 82 TR(pl 81), transformant carrying blaKPC-3; assay: whole cell assay, meropenem MIC with tested agent; type: cell-based, Escherichia coli; conditions: Escherichia coli, read-out: MIC of meropenem alone
Procedure: as §4

[13] = tested on: K. pneumoniae 83 KPC-3-positive, CTX-M-3-positive; assay: checkerboard microdilution, antibiotic plus tested agent; type: cell-based, Klebsiella pneumoniae; conditions: Klebsiella pneumoniae; read-out: MIC of meropenem alone
Procedure: as §4, §5

[14] = tested on: K. pneumoniae 81 KPC-3-positive; assay: as above; type: cell-based, Klebsiella pneumoniae; conditions: Klebsiella pneumoniae; read-out: MIC of meropenem alone
Procedure: as §4, §5

[15] = tested on: K. pneumoniae ATCC BAA-1705 KPC-2-positive; assay: as above; type: cell-based, Klebsiella pneumoniae; conditions: Klebsiella pneumoniae, ATCCBAA1705; read-out: MIC of meropenem alone
Procedure: as §4, §5

CRE strains = conditions: cited from earlier work
[16] = 0.4 mg per disc, 9 mm disc (fluconazole 0.025 mg, 6 mm disc), - no zone, read-out: Diameter of inhibition zone
[17] = 0.4 mg per disc, 9 mm disc (linezolid 0.03 mg, 6 mm disc), - no zone, read-out: Diameter of inhibition zone

OB(O)c1cc(I)c(B(O)O)cc1I [1j]
MIC (Gram-positive strains; enterococci): 100 to 400 µg/mL (≈ 239 to 958 µM)
MIC (Gram-positive strains; staphylococci): 12.5 to 50 µg/mL (≈ 29.9 to 120 µM)
MIC [1]: 50 to 400 µg/mL (≈ 120 to 958 µM)
viability at 72 h, 12.5 mg/L ([2]; 12.5 mg/L): 125 ± 2.8%
viability at 72 h, 25 mg/L ([2]; 25 mg/L): 117 ± 1.2%
viability at 72 h, 50 mg/L ([2]; 50 mg/L): 88.6 ± 3.5%
zone of inhibition at 300 µg/disc [3]: 14 mm
zone of inhibition at 300 µg/disc [4]: 11 mm
zone of inhibition at 0.4 mg/disc [5, 16]: 15 mm
MIC ([5]; fluconazole by Etest): > 400 µg/mL
zone of inhibition at 0.4 mg/disc (B. subtilis ATCC 6633): 20 mm
zone of inhibition at 0.4 mg/disc (C. tropicalis ATCC 750; [16]): 17 mm
MIC (C. tropicalis ATCC 750; fluconazole by Etest): > 400 µg/mL
zone of inhibition at 0.4 mg/disc (S. cerevisiae ATCC 9763; [16]): 20 mm
MIC (S. cerevisiae ATCC 9763; fluconazole by Etest): > 400 µg/mL
zone of inhibition at 0.4 mg/disc (C. albicans ATCC 90028; [16]): 24 mm
MIC (C. albicans ATCC 90028; fluconazole by Etest): 200 µg/mL (≈ 479 µM)
zone of inhibition at 0.4 mg/disc (C. tropicalis IBA 171; [16]): 15 mm
MIC (C. tropicalis IBA 171; fluconazole by Etest): > 400 µg/mL
zone of inhibition at 0.4 mg/disc [6, 16]: 30 mm
MIC ([6]; fluconazole by Etest): 400 µg/mL (≈ 958 µM)
zone of inhibition at 0.4 mg/disc (C. krusei ATCC 6258; [16]): 23 mm
MIC (C. krusei ATCC 6258; fluconazole by Etest): 400 µg/mL (≈ 958 µM)
MIC (S. aureus ATCC 6538P): 50 µg/mL (≈ 120 µM)
zone of inhibition at 0.4 mg/disc (S. aureus ATCC 6538P; [17]): 19 mm
MIC [7]: 50 µg/mL (≈ 120 µM)
zone of inhibition at 0.4 mg/disc [7, 17]: 25 mm
MIC [8]: 50 µg/mL (≈ 120 µM)
zone of inhibition at 0.4 mg/disc [8, 17]: 21 mm
MIC (E. faecalis ATCC 29212): 400 µg/mL (≈ 958 µM)
MIC (E. faecium ATCC 6057): 400 µg/mL (≈ 958 µM)

C[C@@H](O)[C@H]1C(=O)N2C(C(=O)O)=C(S[C@@H]3CN[C@H](C(=O)N(C)C)C3)[C@H](C)[C@H]12 [MEM, meropenem, reference compound]
MIC [9]: 64 µg/mL
zone of inhibition at 10 µg/disc [10]: 6 mm
MIC [11]: 64 µg/mL
MIC (E. coli DH5α): 0.016 µg/mL
MIC [12]: 2 µg/mL
MIC [13]: 32 µg/mL
MIC [14]: 16 µg/mL
MIC [15]: 32 µg/mL

O=C(O)c1c(F)ccc2c1OB(O)[C@@H]1C[C@H]21 [xeruborbactam]
MIC (CRE strains): 16 µg/mL (≈ 72.1 µM)
